These results are taken from patent US20230364029A1, “POLYMORPHIC FORMS OF (R)-2-HYDROXY-2-METHYL-4-(2,4,5-TRIMETHYL-3,6-DIOXOCYCLOHEXA-1,4-DIENYL)BUTANAMIDE” (PTC THERAPEUTICS, INC., priority 2014, published 2023).

By EC50 is commonly meant the concentration at which the effect is half-maximal.

Series [1] can be described thus: Competitive slurries of Patterns A-F. Type of series: physicochemical. To be noted: competitive slurry of Patterns A-F in 0.5% MC/water, ambient. How it is done: Competitive slurry experiments of Patterns A, B, C, D, E and F were initiated in IPA, IPA/2% water and 0.5% Methyl Cellulose in water at ambient conditions as summarized in Table 16. Approximately 100 mg of the starting material, Pattern A, was added to a glass vial fitted with a magnetic stir bar. Solvent was added to the vial and allowed to slurry with Pattern A for 15 minutes before approximately 10-20 mg of each relative Pattern (B, C, D, E and F) was added to each vial.

For series [2], the system named is Human dermal fibroblasts from Friedreich’s Ataxia patients (GM04078). Description: Rescue of BSO-stressed FRDA fibroblasts. Type of series: cell-based. To be noted: Friedrich’s Ataxia, Calcein AM viability. How it is done: An initial screen was performed to identify compounds effective for the amelioration of redox disorders. Test samples were tested for their ability to rescue FRDA fibroblasts stressed by addition of L-buthionine-(S,R)-sulfoximine (BSO), as described in Jauslin et al., Hum. Mol. Genet. 11(24):3055 (2002), Jauslin et al., FASEB J. 17:1972-4 (2003), and International Patent Application WO 2004/003565.
MEM (a medium enriched in amino acids and vitamins, catalog no. 1-31F24-I) and Medium 199 (M199, catalog no. 1-21F22-I) with Earle’s Balanced Salts, without phenol red, were purchased from Bioconcept. Fetal Calf Serum was obtained from PAA Laboratories. Basic fibroblast growth factor and epidermal growth factor were purchased from PeproTech. Penicillin-streptomycin-glutamine mix, L-buthionine (S,R)-sulfoximine, and insulin from bovine pancreas were purchased from Sigma. Calcein AM was purchased from Anaspec. […]
100 microliters of PBS +Ca +Mg containing 1.2 micromolar Calcein AM were then added to each well. […] After that time fluorescence (excitation/emission wavelengths of 485 nm and 525 nm, respectively) was read on a Gemini fluorescence reader. […]

The test system of series [3] is cells from patients having Leigh Syndrome (Coriell GMOI503A). The experiment in a line: Fibroblast screen similar to Example 12, Leigh Syndrome cells. Type of series: cell-based. The following applies: Homo sapiens.
Series [4] deals with cells from patients having Leber’s Hereditary Optic Neuropathy (LHON) (Coriell GM03858). The experiment in a line: Fibroblast screen similar to Example 12, LHON cells. Type of series: cell-based. The following applies: Homo sapiens.
Series [5] relates to cells from patients having Parkinson’s Disease (Coriell AG20439). The experiment in a line: Fibroblast screen similar to Example 12, Parkinson’s Disease cells. To be noted: Homo sapiens. Type of series: cell-based.
Series [6] has as its system cells from patients having Huntington’s Disease (Coriell GM 04281). Description: Fibroblast screen similar to Example 12, Huntington’s Disease cells. To be noted: Homo sapiens. It counts as cell-based.
The subject of series [7] is cells from patients having Rett’s Disorder (Coriell GM-17567). Description: Fibroblast screen similar to Example 12, Rett’s Disorder cells. Type of series: cell-based. The following applies: Homo sapiens.
Series [8] relates to cells from patients having a CoQ2 mutation (CoQ10 Deficiency). Description: Fibroblast screen similar to Example 12, CoQ10 Deficiency cells. It counts as cell-based. To be noted: Homo sapiens.
Series [9] relates to cells from patients having Amyotrophic Lateral Sclerosis (ALS) (Coriell ND29523). Description: Fibroblast screen similar to Example 12, ALS cells. It counts as cell-based. To be noted: Homo sapiens.
The test system of another series is auditory HEI-OC 1 cells. Description: Protection from cisplatin-induced ototoxicity (caspase3/7 activity). It counts as cell-based, mice. The following applies: overnight pretreatment, 24 hours of 50 uM cisplatin. As to the method:
The conditionally immortalized auditory HEI-OC 1 cells from long-term cultures of transgenic mice Immortomouse™ cochleas as described in Kalinec, G. et al., Audiol. Nerootol. 2003; 8, 177-189/. were maintained in high glucose Dulbecco’s modified Eagle medium (DMEM) containing 10% FBS under permissive conditions, 33° C., 10%CO2. Cells were pretreated overnight with (R)-2-hydroxy-2-methyl-4-(2,4,5-trimethyl-3,6-dioxocyclohexa-1,4-dienyl)butanamide, and apoptosis was detected by caspase3/7 activity after 24 hours of 50 uM cisplatin incubation. Cells incubated in diluent alone were the controls.

`CC1=C(C)C(=O)C(CC[C@@](C)(O)C(N)=O)=C(C)C1=O` [(R)-2-hydroxy-2-methyl-4-(2,4,5-trimethyl-3,6-dioxocyclohexa-1,4-dienyl)butanamide]: the “XRPD 24 hrs” value in series [1] was “A/C”. Moreover, the EC50 is under 0.1 µM in series [2]; under 0.1 µM in series [3]; under 0.1 µM in series [4]; 0.1 to 0.5 µM in series [5]; under 0.1 µM in series [6]; under 0.1 µM in [7]. The EC50 in series [8] and in [9] was under 0.1 µM in each case. In the series with auditory HEI-OC 1 cells, the EC25 entry is given as “+++ (+++ indicates less than 100 micromolar)”.
